# From PMC11943507 (Marine Drugs, 2025)
# Values joined by “and” are separate entries in the source; they are usually repeats but may differ in a detail not shown here. Equal entries are not always repeated. “Also recorded” adds a separate entry of the source. Where two headings read alike, the source gives them in different places.
# How the values were obtained:
# hNav1.1 [1] = molecular target: T1, hNav1.1 (Homo sapiens, UniProt P35498); assay: cell-based; assay type: cell-based
# Nav1.6 = settings: cited from earlier work
# Nav1.7 = settings: cited from earlier work
# hNav1.1 [2] = molecular target: T1, hNav1.1; assay type: cell-based
# hNav1.1 [3] = molecular target: T1, hNav1.1
# Nav1.1 = settings: cited from earlier work
# hNav1.1 [4] = molecular target: T1, hNav1.1; assay type: cell-based; remark: listed apart in the source
# hNav1.1 [5] = molecular target: T1, hNav1.1; assay type: cell-based; remark: listed apart in the source
compound,measurement,setting,value
COc1ccc(C(=O)O[C@H]2CC[C@@]3(C)[C@@H]4CC[C@H]5[C@]6(O)C[C@H](O)[C@@]7(O)[C@@H](CN8C[C@@H](C)CC[C@H]8[C@@]7(C)O)[C@]6(O)C[C@@]53O[C@]24O)cc1OC [veratridine],fluorescence signal relative to the maximum fluorescence signal,hNav1.1 [1],approximately 80%
same,EC50,hNav1.1 [1]; EC50,~24 µM and 24 µM
same,peak amplitude of the sodium current,Nav1.6,enhanced
same,peak current,Nav1.6,suppressed
same,EC50,"Nav1.7; read-out: EC50, tail and sustained currents",9.53 µM
same,IC50,"Nav1.7; read-out: IC50, inhibitory effect on the peak current",18.4 µM
"NC1=N[C@H](O)[C@H]2[C@H]3O[C@]4(O)O[C@@H]([C@@H](O)[C@@]2(N1)[C@@H]4O)[C@]3(O)CO [TTX, tetrodotoxin]",IC50,hNav1.1 [2],0.0184 µM
same,inhibition of the channel-opening effect of 30 μM veratridine,hNav1.1 [2],almost completely inhibited
same,suppression of hNav1.1 current signal,hNav1.1 [3],almost completely suppressed
same,IC50,hNav1.1 [3]; read-out: IC50 determined by patch clamp,0.00327 µM and ~0.00327 µM
"C=C1[C@@H](O)[C@@H]2O[C@]3(CC[C@H](/C=C/[C@@H](C)[C@@H]4CC(C)=C[C@@]5(O[C@H](C[C@@](C)(O)C(=O)O)CC[C@H]5O)O4)O3)CC[C@H]2O[C@@H]1[C@@H](O)C[C@H](C)[C@H]1O[C@@]2(CC[C@H]1C)OCCC[C@H]2C [DTX1, dinophysistoxin 1]",fluorescence signal in agonist mode concentration-response,hNav1.1 [1],no significant increase
same,"fluorescence intensity stimulated by 30 μM veratridine, inhibition mode concentration-response",hNav1.1 [2],not significantly inhibited
same,agonist activity in initial screening,hNav1.1 [4],did not exhibit any potential agonist or inhibitor activity
same,inhibitory effect in initial screening,hNav1.1 [5],no significant inhibition; also recorded: did not exhibit any potential agonist or inhibitor activity
